From patent publication US12522607B2, “Substituted pyrazolo[3,4-d]pyrimidines as wee-1 inhibitors” (WIGEN BIOMEDICINE TECHNOLOGY (SHANGHAI) CO., LTD., priority 2020, dated 2026)

Key:
[1] = test system: HT29 cells; experiment: Antiproliferative activity against HT29 cells (Cell Titer-Lumi, ATP content); assay type: cell-based; settings: Homo sapiens, HT-29, 72 after compound addition, read-out: HT-29 cells Anti-proliferative activity (IC50 for the inhibition against HT-29 cell growth)
Experimental: Example 343. Assay for Antiproliferative Activity Against HT29 Cells
3000 HT29 cells were seed in a 384-well plate (Fisher 142762). After the cells adhered to the wall overnight, the compounds diluted in a gradient were added. 72 later, Cell Titer-Lumi (Beyotime C0068XL) was added to determine the content of ATP in the cells. The growth of the cells was evaluated, and the IC50 for the inhibition of the compounds against cell growth was calculated.

[2] = target: T1, Wee-1 kinase (Homo sapiens, UniProt P30291); experiment: Inhibitory activity against Wee-1 kinase (Lanthra Screen Wee-1 kinase kit, Tracer 178); assay type: binding; settings: Wee-1 kinase 5 nM, Tracer 178 50 nM, 1 h room temperature
T1 construct: purchased Invitrogen
Experimental: Example 342. Assay for Inhibitory Activity of Compounds Against Wee-1 Kinase
The inhibitory activity of compounds against Wee-1 kinase was determined by using the Lanthra Screen Wee-1 kinase kit (Invitrogen). 5 μL of the compound diluted in a gradient with DMSO, 5 μL. of Wee-1 kinase (at a final concentration of 5 nM), 5 μL of an Eu-Anti-GST antibody (at a final concentration of 2 nM) mixture and 5 μL of kinase Tracer 178 (at a final concentration of 50 nM) were mixed well. The plate was read after incubation at room temperature for one hour. For comparison with the DMSO solvent control group, IC50 for the inhibition activity of the compounds against Wee-1 kinase was calculated.

T1 sequence (P30291 whole entry): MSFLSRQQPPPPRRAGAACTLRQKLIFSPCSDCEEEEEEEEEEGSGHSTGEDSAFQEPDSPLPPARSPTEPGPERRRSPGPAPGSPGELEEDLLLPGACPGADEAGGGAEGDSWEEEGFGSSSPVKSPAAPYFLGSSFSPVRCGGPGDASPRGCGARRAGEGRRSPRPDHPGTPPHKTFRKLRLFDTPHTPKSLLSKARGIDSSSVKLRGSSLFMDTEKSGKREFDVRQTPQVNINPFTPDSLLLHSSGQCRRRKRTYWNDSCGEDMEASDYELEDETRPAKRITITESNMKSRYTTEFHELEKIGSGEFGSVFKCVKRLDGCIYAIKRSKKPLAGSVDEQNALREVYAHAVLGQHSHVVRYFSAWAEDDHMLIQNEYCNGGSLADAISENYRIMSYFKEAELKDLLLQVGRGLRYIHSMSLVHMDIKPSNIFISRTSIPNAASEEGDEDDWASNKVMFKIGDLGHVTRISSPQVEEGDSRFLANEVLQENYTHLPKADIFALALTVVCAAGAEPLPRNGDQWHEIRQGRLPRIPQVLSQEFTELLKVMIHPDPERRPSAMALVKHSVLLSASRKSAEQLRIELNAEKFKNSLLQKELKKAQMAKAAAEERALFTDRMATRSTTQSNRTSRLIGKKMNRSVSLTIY

Row | SMILES | IC50 [1] | IC50 [2]
1 | C=CCn1c(=O)c2cnc(Nc3ccc(N4CCN(C)CC4)cc3)nc2n1-c1ccc(=O)n(C)n1 [Compound 1, 2-allyl-1-(1-methyl-6-oxo-1,6-dihydropyridazin-3-yl)-6-((4-(4-methylpiperazin-1-yl)phenyl)amino)-1,2-dihydro-3H-pyrazolo[3,4-d]pyrimidin-3-one] | > 3000 nM | > 100 nM
2 | C=CCn1c(=O)c2cnc(Nc3ccc(N4CCN(C)CC4)cc3)nc2n1-c1ccc(=O)n(CC)n1 [Compound 2] | > 3000 nM | > 100 nM
3 | C=CCn1c(=O)c2cnc(Nc3ccc(N4CCN(C)CC4)cc3)nc2n1-c1ccc(=O)n(CC(C)C)n1 [Compound 4] | 1000 to 3000 nM | 30 to 100 nM
4 | C=CCn1c(=O)c2cnc(Nc3ccc(N4CCN(C)CC4)cc3)nc2n1-c1ccc(=O)n(C(C)CC)n1 (centres unmarked) [Compound 5] | ≤ 1000 nM | ≤ 30 nM
5 | C=CCn1c(=O)c2cnc(Nc3ccc(N4CCN(C)CC4)cc3)nc2n1-c1ccc(=O)n(CC(C)(C)C)n1 [Compound 6] | 1000 to 3000 nM | 30 to 100 nM
6 | C=CCn1c(=O)c2cnc(Nc3ccc(N4CCN(C)CC4)cc3)nc2n1-c1ccc(=O)n(CC(F)F)n1 [Compound 7] | 1000 to 3000 nM | 30 to 100 nM
7 | C=CCn1c(=O)c2cnc(Nc3ccc(N4CCN(C)CC4)cc3)nc2n1-c1ccc(=O)n(CC(F)(F)F)n1 [Compound 8] | 1000 to 3000 nM | 30 to 100 nM
8 | C=CCn1c(=O)c2cnc(Nc3ccc(N4CCN(C)CC4)cc3)nc2n1-c1ccc(=O)n(C(C)(C)C)n1 [Compound 9] | ≤ 1000 nM | ≤ 30 nM
9 | C=CCn1c(=O)c2cnc(Nc3ccc(N4CCN(C)CC4)cc3)nc2n1-c1ccc(=O)n(C(C)(C)C(F)(F)F)n1 [Compound 10] | ≤ 1000 nM | ≤ 30 nM
10 | C=CCn1c(=O)c2cnc(Nc3ccc(N4CCN(C)CC4)cc3)nc2n1-c1ccc(=O)n(C2CC2)n1 [Compound 11] | ≤ 1000 nM | ≤ 30 nM
11 | C=CCn1c(=O)c2cnc(Nc3ccc(N4CCN(C)CC4)cc3)nc2n1-c1ccc(=O)n(C2CCC2)n1 [Compound 12] | ≤ 1000 nM | ≤ 30 nM
12 | C=CCn1c(=O)c2cnc(Nc3ccc(N4CCN(C)CC4)cc3)nc2n1-c1ccc(=O)n(C2CCCC2)n1 [Compound 13] | ≤ 1000 nM | ≤ 30 nM
13 | C=CCn1c(=O)c2cnc(Nc3ccc(N4CCN(C)CC4)cc3)nc2n1-c1ccc(=O)n(C2COC2)n1 [Compound 14] | > 3000 nM | 30 to 100 nM
14 | C=CCn1c(=O)c2cnc(Nc3ccc(N4CCN(C)CC4)cc3)nc2n1-c1ccc(=O)n(C2CC(F)(F)C2)n1 [Compound 15] | 1000 to 3000 nM | 30 to 100 nM
15 | C=CCn1c(=O)c2cnc(Nc3ccc(N4CCN(C)CC4)cc3)nc2n1-c1ccc(=O)n(CC2CC2)n1 [Compound 16] | 1000 to 3000 nM | 30 to 100 nM
16 | C=CCn1c(=O)c2cnc(Nc3ccc(N4CCN(C)CC4)cc3)nc2n1-c1ccc(=O)n(CC2CCC2)n1 [Compound 17] | 1000 to 3000 nM | 30 to 100 nM
17 | C=CCn1c(=O)c2cnc(Nc3ccc(N4CCN(C)CC4)cc3)nc2n1-c1ccc(=O)n(C(C)(C)CO)n1 [Compound 18] | 1000 to 3000 nM | ≤ 30 nM
18 | C=CCn1c(=O)c2cnc(Nc3ccc(N4CCN(C)CC4)cc3)nc2n1-c1ccc(=O)n(C(C)(C)COC)n1 [Compound 19] | 1000 to 3000 nM | ≤ 30 nM
19 | C=CCn1c(=O)c2cnc(Nc3ccc(N4CCN(C)CC4)cc3)nc2n1-c1ccc(=O)n(C(C)C)c1 [Compound 20] | ≤ 1000 nM | ≤ 30 nM
20 | C=CCn1c(=O)c2cnc(Nc3ccc(N4CCN(C)CC4)cc3)nc2n1-c1ccc(=O)n(C(C)(C)C)c1 [Compound 21] | ≤ 1000 nM | ≤ 30 nM
21 | C=CCn1c(=O)c2cnc(Nc3ccc(N4CCN(C)CC4)cc3)nc2n1-c1cc(C)c(=O)n(C(C)C)n1 [Compound 22] | ≤ 1000 nM | ≤ 30 nM
22 | C=CCn1c(=O)c2cnc(Nc3ccc(N4CCN(C)CC4)cc3)nc2n1-c1cc(OC)c(=O)n(C(C)C)n1 [Compound 23] | > 3000 nM | ≤ 30 nM
23 | C=CCn1c(=O)c2cnc(Nc3ccc(N4CCN(C)CC4)cc3)nc2n1-c1cc(F)c(=O)n(C(C)C)c1 [Compound 24] | ≤ 1000 nM | ≤ 30 nM
24 | C=CCn1c(=O)c2cnc(Nc3ccc(N4CCN(C)CC4)cc3)nc2n1-c1cc(C(F)(F)F)c(=O)n(C(C)C)c1 [Compound 25] | ≤ 1000 nM | ≤ 30 nM
25 | C=CCn1c(=O)c2cnc(Nc3ccc(N4CCN(C)CC4)cc3)nc2n1-c1cc(C(F)F)c(=O)n(C(C)C)c1 [Compound 26] | ≤ 1000 nM | ≤ 30 nM
26 | C=CCn1c(=O)c2cnc(Nc3ccc(N4CCN(C)CC4)cc3)nc2n1-c1cc(OC)c(=O)n(C(C)C)c1 [Compound 27] | > 3000 nM | 30 to 100 nM

Row | SMILES | IC50 [1] | IC50 [2]
27 | C=CCn1c(=O)c2cnc(Nc3ccc(N4CCN(C)CC4)cc3)nc2n1-c1cc(C#N)c(=O)n(C(C)C)c1 [Compound 28] | > 3000 nM | 30 to 100 nM
28 | C=CCn1c(=O)c2cnc(Nc3ccc(N4CCN(C)CC4)cc3)nc2n1-c1cn(C(C)C)c(=O)cc1C [Compound 29] | ≤ 1000 nM | ≤ 30 nM
29 | C=CCn1c(=O)c2cnc(Nc3ccc(N4CCN(C)CC4)cc3)nc2n1-c1cn(C(C)C)c(=O)cc1OC [Compound 30] | > 3000 nM | 30 to 100 nM
30 | C=CCn1c(=O)c2cnc(Nc3ccc(N4CCNCC4)cc3)nc2n1-c1ccc(=O)n(C(C)C)n1 [Compound 31] | ≤ 1000 nM | ≤ 30 nM
31 | C=CCn1c(=O)c2cnc(Nc3ccc(N4CCN(CC)CC4)cc3)nc2n1-c1ccc(=O)n(C(C)C)n1 [Compound 32] | ≤ 1000 nM | ≤ 30 nM
32 | C=CCn1c(=O)c2cnc(Nc3ccc(N4CCN(C5CC5)CC4)cc3)nc2n1-c1ccc(=O)n(C(C)C)n1 [Compound 33] | ≤ 1000 nM | ≤ 30 nM
33 | C=CCn1c(=O)c2cnc(Nc3ccc(N4CCN(C5CCC5)CC4)cc3)nc2n1-c1ccc(=O)n(C(C)C)n1 [Compound 34] | ≤ 1000 nM | ≤ 30 nM
34 | C=CCn1c(=O)c2cnc(Nc3ccc(N4CCN(C5COC5)CC4)cc3)nc2n1-c1ccc(=O)n(C(C)C)n1 [Compound 35] | ≤ 1000 nM | ≤ 30 nM
35 | C=CCn1c(=O)c2cnc(Nc3ccc(N4CCN(C5CCN(C)CC5)CC4)cc3)nc2n1-c1ccc(=O)n(C(C)C)n1 [Compound 36] | ≤ 1000 nM | ≤ 30 nM
36 | C=CCn1c(=O)c2cnc(Nc3ccc(N4CCN(CCF)CC4)cc3)nc2n1-c1ccc(=O)n(C(C)C)n1 [Compound 37] | ≤ 1000 nM | ≤ 30 nM
37 | C=CCn1c(=O)c2cnc(Nc3ccc(N4CCN(CC(F)F)CC4)cc3)nc2n1-c1ccc(=O)n(C(C)C)n1 [Compound 38] | ≤ 1000 nM | ≤ 30 nM
38 | C=CCn1c(=O)c2cnc(Nc3ccc(N4CCN(CC(F)(F)F)CC4)cc3)nc2n1-c1ccc(=O)n(C(C)C)n1 [Compound 39] | ≤ 1000 nM | ≤ 30 nM
39 | C=CCn1c(=O)c2cnc(Nc3ccc(N4CCN(CC#N)CC4)cc3)nc2n1-c1ccc(=O)n(C(C)C)n1 [Compound 40] | ≤ 1000 nM | ≤ 30 nM
40 | C=CCn1c(=O)c2cnc(Nc3ccc(N4CCNCC4)c(C)c3)nc2n1-c1ccc(=O)n(C(C)C)n1 [Compound 41] | ≤ 1000 nM | ≤ 30 nM
41 | C=CCn1c(=O)c2cnc(Nc3ccc(N4CCN(C)CC4)c(C)c3)nc2n1-c1ccc(=O)n(C(C)C)n1 [Compound 42] | ≤ 1000 nM | ≤ 30 nM
42 | C=CCn1c(=O)c2cnc(Nc3ccc(N4CCN(C)CC4)c(F)c3)nc2n1-c1ccc(=O)n(C(C)C)n1 [Compound 44] | ≤ 1000 nM | ≤ 30 nM
43 | C=CCn1c(=O)c2cnc(Nc3ccc(N4CCNCC4)c(Cl)c3)nc2n1-c1ccc(=O)n(C(C)C)c1 [Compound 45] | ≤ 1000 nM | ≤ 30 nM
44 | C=CCn1c(=O)c2cnc(Nc3ccc(N4CCN(C)CC4)c(Cl)c3)nc2n1-c1ccc(=O)n(C(C)C)c1 [Compound 46] | ≤ 1000 nM | ≤ 30 nM
45 | C=CCn1c(=O)c2cnc(Nc3ccc(N4CCNCC4)c(OC)c3)nc2n1-c1ccc(=O)n(C(C)C)c1 [Compound 47] | ≤ 1000 nM | ≤ 30 nM
46 | C=CCn1c(=O)c2cnc(Nc3ccc(N4CCN(C)CC4)c(OC)c3)nc2n1-c1ccc(=O)n(C(C)C)c1 [Compound 48] | ≤ 1000 nM | ≤ 30 nM
47 | C=CCn1c(=O)c2cnc(Nc3ccc(N4CCNCC4)c(C(F)(F)F)c3)nc2n1-c1ccc(=O)n(C(C)C)c1 [Compound 49] | ≤ 1000 nM | ≤ 30 nM
48 | C=CCn1c(=O)c2cnc(Nc3ccc(N4CCN(C)CC4)c(C(F)(F)F)c3)nc2n1-c1ccc(=O)n(C(C)C)c1 [Compound 50] | ≤ 1000 nM | ≤ 30 nM
49 | C=CCn1c(=O)c2cnc(Nc3ccc(N4CCNCC4)c(CO)c3)nc2n1-c1ccc(=O)n(C(C)C)c1 [Compound 51] | 1000 to 3000 nM | 30 to 100 nM
50 | C=CCn1c(=O)c2cnc(Nc3ccc(N4CCN(C)CC4)c(CO)c3)nc2n1-c1ccc(=O)n(C(C)C)n1 [Compound 52] | 1000 to 3000 nM | ≤ 30 nM
51 | C=CCn1c(=O)c2cnc(Nc3ccc(N4CCNCC4)c(CC(F)(F)F)c3)nc2n1-c1ccc(=O)n(C(C)C)n1 [Compound 53] | ≤ 1000 nM | ≤ 30 nM
52 | C=CCn1c(=O)c2cnc(Nc3ccc(N4CCN(C)CC4)c(CC(F)(F)F)c3)nc2n1-c1ccc(=O)n(C(C)C)n1 [Compound 54] | ≤ 1000 nM | ≤ 30 nM
